Assay results as given in the NIST ThermoML archive (doi:10.1021/je0501484).

Assay: mn = molality of the nth substance listed, in mol/kg
Settings: 101 kPa, Liquid

CCCCCC(=O)[O-].[Na+] [sodium hexanoate] + O
Settings | mass density, m1 = 0.5 [kg/m3] | mass density, m1 = 1 [kg/m3] | mass density, m1 = 1.5 [kg/m3] | mass density, m1 = 2.177 [kg/m3] | viscosity, m1 = 0.5 [mPa·s] | viscosity, m1 = 1 [mPa·s] | viscosity, m1 = 1.5 [mPa·s] | viscosity, m1 = 2.177 [mPa·s]
298.15 K | 1014.4 | 1029.41 | 1041.88 | 1054.22 | 1.212 | 1.607 | 2.102 | 3.187
308.15 K | 1010.74 | 1024.96 | 1036.7 | 1048.72 | 0.956 | 1.24 | 1.601 | 2.402
